How the values were obtained:
neuroblastoma cell lines = assay: CellTiterGlo viability, panel of neuroblastoma cell lines; type: cell-based; settings: all neuroblastoma cell lines tested; single agent
Protocol: In addition, all media contained penicillin (100 IU/ml), streptomycin (100 μg/ml) and L-glutamine (2 mM). Cell lines were cultured at 37° C. in a humidified atmosphere containing 5% CO2 and expanded in T-150 flasks. In all cases cells were thawed from frozen stocks, expanded through ≥1 passage using appropriate dilutions, counted and assessed for viability using a CASY cell counter prior to plating 150 ul/well at the densities indicated in Table 6 into 96-well plates. All cell lines were determined to be free of mycoplasma contamination in-house.
Stock solutions of compounds were prepared at a concentration of 5 mM in DMSO and stored at −20° C. […] Effects of the compounds on cell viability were assessed after 2 or 3 days of incubation (as indicated in Table 6) at 37° C./5% CO2 by quantification of cellular ATP levels using CellTiterGlo at 150 μL reagent/well. […] Luminescence was quantified on a multipurpose platereader. Single agent IC50s were calculated using standard four-parametric curve fitting. […]
Identical experiments were performed to assess potential synergistic interactions between compound combinations. Synergy Score were assessed using the Excess Inhibition 2D matrix according to the Loewe additivity model (Lehar et al, Nat Biotechnol. 2009 July; 27(7): 659-666). […]

NAN1 = assay: MTT cell viability assay, myeloma cell line; type: cell-based, human; settings: Homo sapiens, single agent, read-out: IC50
Protocol: (§1) Cell lines: Human myeloma cell lines (HMCLs) were derived from primary myeloma cells cultured in RPMI 1640 medium supplemented with 5% fetal calf serum from and 3 ng/mL recombinant IL-6 for IL-6 dependent cell lines. HMCLs are representative of phenotypic and genomic heterogeneity and the variability in patient's response to therapy.
(§2) MTT assay: Cell viability is measured using MTT (3-(4,5-dimethylthiazol-2-yl)-2,5-diphenyltetrazolium bromide) colorimetric survival assay. Cells are incubated with compounds in 96-well plates containing a final volume of 100 μl/well time. (2R)-2-{[(5Sa)-5-{3-chloro-2-methyl-4-[2-(4-methylpiperazin-1-yl)ethoxy]phenyl}-6-(5-fluorofuran-2-yl)thieno[2,3-d]pyrimidin-4-yl]oxy}-3-(2-{[1-(2,2,2-trifluoroethyl)-1H-pyrazol-5-yl]methoxy}phenyl)propanoic acid (Compound 2) is used at 9 different concentrations accordingly to single agent sensitivity. N-(4-hydroxyphenyl)-3-{6-[((3S)-3-(4-morpholinylmethyl)-3,4-dihydro-2(1H)-isoquinolinyl)carbonyl]-1,3-benzodioxol-5-yl}-N-phenyl-5,6,7,8-tetrahydro-1-indolizine carboxamide hydrochloride (Compound 1, HCl) is used at a fixed dose—1 μM. At the end of each treatment, cells are incubated with 1 mg/mL MTT (50 μl MTT solution 2.5 mg/ml for each well) at 37° C. for 3 hours allowing the MTT to be metabolized. Lysis buffer (100 μl Lysis buffer: DMF (2:3)/SDS (1:3)) is added into each well to dissolve formazan cristals and after 18 h of incubation, absorbance in viable cells is measured at 570 nm using a spectrophotometer.
(§3) The sensitivity of 27 human multiple myeloma cell lines to Compound 1, Compound 2 or to Compound 2 in the presence of 1 μM of Compound 1 was analyzed by using MTT cell viability assay. 50% inhibitory concentrations (IC50, in nM) were determined.

XG3 = assay: MTT cell viability assay, myeloma cell line; type: cell-based, human; settings: Homo sapiens, single agent, read-out: IC50
Protocol: as §1, §2, §3

JJN3 = assay: MTT cell viability assay, myeloma cell line; type: cell-based, human; settings: Homo sapiens, JJN-3, single agent, read-out: IC50
Protocol: as §1, §2, §3

NAN3 = assay: MTT cell viability assay, myeloma cell line; type: cell-based, human; settings: Homo sapiens, single agent
Protocol: as §1, §2, §3

NAN6 = assay: MTT cell viability assay, myeloma cell line; type: cell-based, human; settings: Homo sapiens, single agent, read-out: IC50
Protocol: as §1, §2, §3

RPMI8226 = assay: MTT cell viability assay, myeloma cell line; type: cell-based, human; settings: Homo sapiens, RPMI-8226, single agent, read-out: IC50
Protocol: as §1, §2, §3

JIM3 = assay: MTT cell viability assay, myeloma cell line; type: cell-based, human; settings: Homo sapiens, single agent, read-out: IC50
Protocol: as §1, §2, §3

XG1 = assay: MTT cell viability assay, myeloma cell line; type: cell-based, human; settings: Homo sapiens, single agent, read-out: IC50
Protocol: as §1, §2, §3

SBN = assay: MTT cell viability assay, myeloma cell line; type: cell-based, human; settings: Homo sapiens, single agent, read-out: IC50
Protocol: as §1, §2, §3

XG2 = assay: MTT cell viability assay, myeloma cell line; type: cell-based, human; settings: Homo sapiens, single agent, read-out: IC50
Protocol: as §1, §2, §3

XG11 = assay: MTT cell viability assay, myeloma cell line; type: cell-based, human; settings: Homo sapiens, single agent, read-out: IC50
Protocol: as §1, §2, §3

AMO1 = assay: MTT cell viability assay, myeloma cell line; type: cell-based, human; settings: Homo sapiens, single agent, read-out: IC50
Protocol: as §1, §2, §3

LP1 = assay: MTT cell viability assay, myeloma cell line; type: cell-based, human; settings: Homo sapiens, LP-1, single agent, read-out: IC50
Protocol: as §1, §2, §3

Cl.O=C(c1cc(-c2cc3c(cc2C(=O)N2Cc4ccccc4C[C@H]2CN2CCOCC2)OCO3)n2c1CCCC2)N(c1ccccc1)c1ccc(O)cc1 [Compound 1, HCl, N-(4-hydroxyphenyl)-3-{6-[((3S)-3-(4-morpholinylmethyl)-3,4-dihydro-2(1H)-isoquinolinyl)carbonyl]-1,3-benzodioxol-5-yl}-N-phenyl-5,6,7,8-tetrahydro-1-indolizine carboxamide hydrochloride]
IC50 (neuroblastoma cell lines): > 1 µM
IC50 (NAN1): 6.66 µM
IC50 (XG3): 7.22 µM
IC50 (JJN3): 2.69 µM
IC50 (NAN3): 8.24 µM
IC50 (NAN6): 4.07 µM
IC50 (RPMI8226): 3.2 µM
IC50 (JIM3): > 30 µM
IC50 (XG1): 9.78 µM
IC50 (SBN): 21.3 µM
IC50 (XG2): 15.3 µM
IC50 (XG11): 7.91 µM
IC50 (AMO1): 8.61 µM
IC50 (LP1): 9.77 µM

From patent publication US20190240225A1, “COMBINATION OF A BCL-2 INHIBITOR AND A MCL-1 INHIBITOR, USES AND PHARMACEUTICAL COMPOSITIONS THEREOF” (LES LABORATOIRES SERVIER, priority 2016, published 2019)
